Patent publication US12023323B2, “Carbohydrate-binding small molecules with antiviral activity” (priority 2018, dated 2024)
Entries after “also recorded” stand apart in the source; their conditions may differ. Structures can show the parent of a compound that is named as a salt. Where two headings read alike, the source gives them in different places.

Assays:
ZIKV GFP RVPs [1] = experiment: microbe, parasite or virus in culture; settings: Zika virus, Vero
[2] = 1H NMR titration with octyloxy pyranoside α-Man; format: binding; parameters: key to Ka (M^−1) with α-Man: No detectable binding; settings: for Ka (M^−1) with α-Man: NMR titrations in CD2Cl2 at 298 K; for affinity for α-Man relative to SCR001: fold / ratio SCR:SCR001
[3] = Selectivity across the five octyloxy pyranosides from NMR titrations; format: binding; settings: for binding profile across the glycans in words / glycan preference in words: five octyloxy pyranosides, CD2Cl2, 298 K
[4] = 1H NMR titration with octyloxy pyranoside β-Man; format: binding; parameters: key to Ka (M^−1) with β-Man: No detectable binding; settings: for Ka (M^−1) with β-Man: NMR titrations in CD2Cl2 at 298 K
HeLa cells = experiment: Cellular toxicity, CellTiter-Glo, HeLa cells; settings: read-out: TC50, Table 2, 72 h
ZIKV GFP RVPs [5] = tested on: ZIKV GFP RVPs
ZIKV RVPs = experiment: microbe, parasite or virus in culture; format: cell-based, Zika virus; settings: for IC50: Zika virus, HeLa
Vero cells = experiment: Cellular toxicity, CellTiter-Glo, Vero cells; settings: for CC50: read-out: TC50, Table 1, 72 h, CellTiter-Glo
[6] = 1H NMR titration with octyloxy pyranoside β-Glc; format: binding; settings: for K1 (1:1 association constant) with β-Glc: CD2Cl2, 298 K; for affinity for β-Glc relative to SCR001: fold / ratio SCR:SCR001
[7] = Cellular toxicity, CellTiter-Glo, Vero cells; settings: African green monkey
[8] = 1H NMR titration with octyloxy pyranoside α-Glc; format: binding; settings: NMR titrations
[9] = 1H NMR titration with octyloxy pyranoside β-Gal; format: binding; settings: NMR titrations
HIV-1 = settings: cell culture; cited from earlier work
[10] = Table 1, Vero cells, compounds 30 min before ZIKV RVPs, GFP+ cells 72 h postinfection
[11] = Table 3, Vero cells, ZIKV RVPs, average of at least two independent measurements
[12] = Table 3 study, Vero cells, ZIKV RVPs, unit μm [sic]
[13] = read-out: IC50 (strong antiviral activity), Vero cells, ZIKV RVPs

## NCc1cc(CN)cc(-c2cc(CN)cc(CN)c2)c1 [Compound 2, [1,1′-biphenyl]-3,3′,5,5′-tetrayltetramethanamine tetrahydrochloride]
ZIKV GFP RVPs [1]; [10]
  IC50: > 100 µM

## c1coc(CNCc2cc(CNCc3ccco3)cc(-c3cc(CNCc4ccco4)cc(CNCc4ccco4)c3)c2)c1 [SCR002, 1,1′,1″,1′″-([1,1′-biphenyl]-3,3′,5,5′-tetrayl)tetrakis(N-(furan-2-ylmethyl)methanamine)]
[2]; 1:1 binding
  Ka (M^−1) with α-Man: 1400 M⁻¹
[3]
  binding profile across the glycans in words: measurable binding with only β-Glc, β-Man and α-Man; also recorded: binds only β-Glc, β-Man, and α-Man
  glycan preference in words: preference for α-Man; also recorded: selective for α-Man
[4]; 1:1 binding
  Ka (M^−1) with β-Man: 54 M⁻¹
HeLa cells
  CC50: 2.51 µM
ZIKV GFP RVPs [5]; Vero cells, ZIKV RVPs
  anti-ZIKV activity in words: less potent
ZIKV RVPs; HeLa cells, ZIKV RVPs
  anti-ZIKV activity in words: more potent than SCR001
ZIKV RVPs
  IC50: 0.35 ± 0.09 µM
ZIKV GFP RVPs [1]; [10]
  IC50: 1.13 ± 0.23 µM
Vero cells
  CC50: 5.43 µM

## c1csc(CNCc2cc(CNCc3cccs3)cc(-c3cc(CNCc4cccs4)cc(CNCc4cccs4)c3)c2)c1 [SCR003, 1,1′,1″,1′″-([1,1′-biphenyl]-3,3′,5,5′-tetrayl)tetrakis(N-(thiophen-2-ylmethyl)methanamine)]
[2]
  Ka (M^−1) with α-Man: c
[3]
  binding profile across the glycans in words: only had measurable binding with β-Glc, and α-Man; also recorded: binds only β-Glc and α-Man
  glycan preference in words: preference for α-Man; also recorded: selective for α-Man
[4]
  Ka (M^−1) with β-Man: c
[4]; 1:1 binding
  Ka (M^−1) with β-Man: < 30 M⁻¹
HeLa cells
  CC50: 2.47 µM
ZIKV GFP RVPs [5]; Vero cells, ZIKV RVPs
  anti-ZIKV activity in words: less potent
ZIKV RVPs
  IC50: 0.56 ± 0.08 µM
ZIKV GFP RVPs [1]; [10]
  IC50: 1.31 µM
Vero cells
  CC50: 4.12 µM

## O=C(NCc1cc(CNC(=O)c2cccs2)cc(-c2cc(CNC(=O)c3cccs3)cc(CNC(=O)c3cccs3)c2)c1)c1cccs1 [SCR008, N,N,N′,N″-([1,1′-biphenyl]-3,3′,5,5′-tetrayltetrakis(methylene))tetrakis(thiophene-2-carboxamide)]
ZIKV GFP RVPs [5]
  IC50: > 100 µM
  anti-ZIKV activity in words: not effective

## c1c[nH]c(CNCc2cc(CNCc3ccc[nH]3)cc(-c3cc(CNCc4ccc[nH]4)cc(Cn4cc(COCCOCCOCCOCc5cn(Cc6cc(CNCc7ccc[nH]7)cc(-c7cc(CNCc8ccc[nH]8)cc(CNCc8ccc[nH]8)c7)c6)nn5)nn4)c3)c2)c1 [SCR012]
[2]; 1:1 binding
  Ka (M^−1) with α-Man: 2600 M⁻¹
[3]
  binding profile across the glycans in words: promiscuous; also recorded: bind all five glycans
[4]; 1:1 binding
  Ka (M^−1) with β-Man: 1700 M⁻¹
HeLa cells
  CC50: 2.48 µM
Vero cells
  CC50: 36.2 µM

## c1cc(CNCc2cc(CNCc3cc[nH]c3)cc(-c3cc(CNCc4cc[nH]c4)cc(CNCc4cc[nH]c4)c3)c2)c[nH]1 [SCR017, 1,1′,1″,1′″-([1,1′-biphenyl]-3,3′,5,5′-tetrayl)tetrakis(N-((1H-pyrrol-3-yl)methyl)methanamine)]
[3]
  glycan preference in words: prefers β-Glc; also recorded: specific for β-Glc
[6]; 1:2 SCR·glycan complexes
  K2 (1:2 SCR·glycan association constant) with β-Glc: 6800 M⁻¹
  cumulative association constant β with β-Glc: 8.4×10^1 M^−2
[6]; 1:2 SCR·glycan, unit M^2
  cumulative association constant β with β-Glc: 8.4×10^1 M^2
[6]
  K1 (1:1 association constant) with β-Glc: 1.2 M⁻¹
  affinity for β-Glc relative to SCR001: 7
ZIKV GFP RVPs [5]; SCR023 vs SCR022, SCR017 vs SCR001
  IC50 relative to regioisomer: four times higher
ZIKV GFP RVPs [5]; Table 3, Vero cells
  therapeutic index (TC50/IC50): 66
ZIKV GFP RVPs [5]; Vero cells, ZIKV RVPs
  anti-ZIKV activity in words: potent anti-ZIKV activity
ZIKV GFP RVPs [1]; [11]
  IC50: 4.8 ± 0.4 µM
ZIKV GFP RVPs [1]; [12]
  IC50: < 5 µM
ZIKV GFP RVPs [1]; [13]
  IC50: < 5 µM
[7]
  CC50 at 72 h: 316 ± 18 µM

## c1ccc2[nH]c(CNCc3cc(CNCc4cc5ccccc5[nH]4)cc(-c4cc(CNCc5cc6ccccc6[nH]5)cc(CNCc5cc6ccccc6[nH]5)c4)c3)cc2c1 [SCR018, 1,1′,1″,1′″-([1,1′-biphenyl]-3,3′,5,5′-tetrayl)tetrakis(N-((1H-indol-2-yl)methyl)methanamine)]
[2]; 2-indole vs 3-indole
  fold selectivity for α-Man, SCR019 compared to SCR018: 36
[2]; 1:1 binding
  Ka (M^−1) with α-Man: 11000 M⁻¹
[2]
  affinity for α-Man relative to SCR001: 10
[3]
  glycan preference in words: uniquely bind α-Man; also recorded: specific for α-Man
[6]; NMR peak shifting upon mixing
  binding to β-Glc in words: no substantial binding
ZIKV GFP RVPs [5]; Table 3, Vero cells
  therapeutic index (TC50/IC50): 2
ZIKV GFP RVPs [5]; Vero cells, ZIKV RVPs
  anti-ZIKV activity in words: weaker inhibition
[7]
  CC50 at 72 h: 29.8 ± 5 µM

## c1ccc2c(CNCc3cc(CNCc4c[nH]c5ccccc45)cc(-c4cc(CNCc5c[nH]c6ccccc56)cc(CNCc5c[nH]c6ccccc56)c4)c3)c[nH]c2c1 [SCR019, 1,1′,1″,1′″-([1,1′-biphenyl]-3,3′,5,5′-tetrayl)tetrakis(N-((1H-indol-3-yl)methyl)methanamine)]
[8]
  binding to α-Glc in words: no substantial binding
[2]; 1:1 binding
  Ka (M^−1) with α-Man: 290 M⁻¹
[3]
  glycan preference in words: prefers β-Man; also recorded: selective for Mannosides with a preference for the β-anomer
[3]; fold
  affinity for β-Man over α-Man: 250
[4]; 1:2 SCR·glycan binding model
  cumulative association constant β=K1×K2 with β-Man: 7.4×10^4 M^−2
[4]; 1:2 SCR·glycan, unit M^2
  cumulative association constant β with β-Man: 7.4×10^4 M^2
[4]; CD2Cl2, 298 K
  K1 (1:1 association constant) with β-Man: 2.3 M⁻¹
[4]; CD2Cl2, 298 K, 1:2 SCR·glycan binding model
  K2 (1:2 SCR·glycan association constant) with β-Man: 32000 M⁻¹
[4]; SCR019:SCR001
  affinity for β-Man relative to SCR001: 2
ZIKV GFP RVPs [5]; Table 3, Vero cells
  therapeutic index (TC50/IC50): 153
ZIKV GFP RVPs [1]; [11]
  IC50: 0.26 µM
ZIKV GFP RVPs [1]; [13]
  IC50: < 5 µM
Vero cells
  cellular toxicity in words: minimal cellular toxicity; also recorded: low off-site toxicity
[7]
  CC50 at 72 h: 39.8 ± 1.7 µM

## c1ccc(CNCc2cc(CNCc3ccccn3)cc(-c3cc(CNCc4ccccn4)cc(CNCc4ccccn4)c3)c2)nc1 [SCR020, 1,1′,1″,1′″-([1,1′-biphenyl]-3,3′,5,5′-tetrayl)tetrakis(N-(pyridin-2-ylmethyl)methanamine)]
[2]; 1:2 SCR·glycan binding model
  K2 (1:2 SCR·glycan association constant) with α-Man: 11 M⁻¹
  cumulative association constant β with α-Man: 2.8×10^5 M^−2
[2]; 1:2 SCR·glycan, unit M^2
  cumulative association constant β with α-Man: 2.8×10^5 M^2
[2]; CD2Cl2, 298 K
  K1 (1:1 association constant) with α-Man: 260 M⁻¹
[2]
  affinity for α-Man relative to SCR001: 200
[2]; times
  change in affinity for α-Man, SCR020 and SCR021: 570
[3]
  glycan preference in words: uniquely bind α-Man; also recorded: specific for α-Man
ZIKV GFP RVPs [5]; Table 3, Vero cells
  therapeutic index (TC50/IC50): 9
ZIKV GFP RVPs [5]; [11]
  IC50: 19.9 ± 14.4 µM
ZIKV GFP RVPs [5]; Vero cells, ZIKV RVPs
  anti-ZIKV activity in words: weaker inhibition
ZIKV GFP RVPs [1]; [11]
  IC50: < 20 µM
[7]
  CC50 at 72 h: 178 ± 99 µM

## c1cncc(CNCc2cc(CNCc3cccnc3)cc(-c3cc(CNCc4cccnc4)cc(CNCc4cccnc4)c3)c2)c1 [SCR021, 1,1′,1″,1′″-([1,1′-biphenyl]-3,3′,5,5′-tetrayl)tetrakis(N-(pyridin-3-ylmethyl)methanamine)]
[9]
  binding to β-Gal in words: no substantial binding
[8]
  binding to α-Glc in words: no substantial binding
[2]; 1:1 binding
  Ka (M^−1) with α-Man: 490 M⁻¹
[3]
  glycan preference in words: prefer β-Glc
[3]; times
  affinity for β-Glc over α-Man: 67
[6]; 1:2 SCR·glycan complexes
  K2 (1:2 SCR·glycan association constant) with β-Glc: 12000 M⁻¹
  cumulative association constant β with β-Glc: 3.3×10^4 M^−2
[6]
  K1 (1:1 association constant) with β-Glc: 2.7 M⁻¹
  affinity for β-Glc relative to SCR001: 25
ZIKV GFP RVPs [1]; [11]
  IC50: > 100 µM
ZIKV GFP RVPs [1]; [12]
  IC50: > 100 µM

## COc1cc(O)c2c(c1)C(=O)c1c(cc3c(c1O)-c1c(cc(C)c(C(=O)N[C@H](C)C(=O)O)c1O)[C@H](O[C@@H]1O[C@H](C)[C@H](O)[C@H](O[C@@H]4OC[C@@H](O)[C@H](O)[C@H]4O)[C@H]1O)[C@H]3O)C2=O [benanomicin A]
HIV-1
  50% effective concentration against HIV-1: micromolar concentration range

## CN[C@@H]1[C@H](O[C@@H]2OC[C@@H](O)[C@H](O)[C@H]2O)[C@@H](O)[C@H](O[C@H]2c3cc(C)c(C(=O)N[C@H](C)C(=O)O)c(O)c3-c3c(cc4c(c3O)C(=O)c3cc(OC)cc(O)c3C4=O)[C@@H]2O)O[C@@H]1C [pradimicin A]
HIV-1
  50% effective concentration against HIV-1: micromolar concentration range
